Assay results reported in patent US4581354A, “3-arylcarbonyl- and 3-cycloalkylcarbonyl-1-aminoalkyl-1H-indoles, compositions and use” (Sterling Drug Inc., priority 1985, dated 1986).
Read-outs that look alike come from different tables or passages of the source.

Tested on: acetylcholine-induced abdominal constriction
Assay: animal or person
Format: in vivo, mice
Conditions: for ED50: read-out: Ach ED50; for inhibition in vivo at 300 mg/kg: 300 mg./kg. oral; for inhibition in vivo at 10 mg/kg: 10 mg./kg. i.v.; for inhibition in vivo at 550 mg/kg: 550 mg./kg. oral; for inhibition in vivo at 150 mg/kg: 150 mg./kg. oral
Excerpt: The test procedures used to determine the analgesic activities of the compounds have been described in detail in the prior art and are as follows: The acetylcholine-induced abdominal constriction test, which is a primary analgesic screening test designed to measure the ability of a test agent to suppress acetylcholine-induced abdominal constriction in mice, described by Collier et al., Brit. J. Pharmacol. Chemotherap. 32, 295 (1968); a modification of the anti-bradykinin test, which is also a primary analgesic screening procedure, described by Berkowitz et al., J. Pharmacol. Exptl. Therap. 177, 500-508 (1971), Blane et al., J. Pharm. Pharmacol. 19, 367-373 (1967), Botha et al., Eur. J. Pharmacol. 6, 312-321 (1969) and Deffenu et al., J. Pharm. Pharmacol. 18, 135 (1966); and the rat paw flexion test, described by Kuzuna et al., Chem. Pharm. Bull., 23, 1184-1191 (1975), Winter et al., J. Pharm. Exptl. Therap., 211, 678-685 (1979) and Capetola et al., J. Pharm. Exptl. Therap. 214, 16-23 (1980).
Unless noted otherwise, all data were obtained on oral administration and are expressed either as the ED50 or as the percent inhibition at a given dose level (thus 30/100 or 30% inhibition at […].)
In some instances, the compounds were retested two or more times, and ED50 values were calculated for each series of repeat tests. In such instances, each of the ED50 values so-obtained is given in a series of values, thus 6, 28, 30, 43 in the case of the species of Example 1AW in the acetylcholine-induced abdominal constriction test.

[1] = Mus musculus, po, 100 mg./kg. oral, read-out: Ach percent inhibition
[2] = Mus musculus, po, read-out: Ach percent inhibition
[3] = Mus musculus, iv, read-out: Ach percent inhibition
[4] = Mus musculus, iv, 30 mg./kg. i.v., read-out: Ach percent inhibition
[5] = Mus musculus, sc, 30 mg./kg. s.c., read-out: Ach percent inhibition
[6] = Mus musculus, po, 30 mg./kg. oral, read-out: Ach percent inhibition

Compound	ED50 (Mus musculus, po) [mg/kg]	inhibition in vivo at 100 mg/kg [1] [%]	inhibition in vivo at 300 mg/kg [2] [%]	other results
5-bromo-2-methyl-3-(4-methylbenzoyl)-1-[2-(4-morpholinyl)ethyl]-1H-indole [Example 33]	–	–	–	Ach percent inhibition (100 mg./kg. oral): 20%
COc1ccc(C(=O)c2c(C)n(CCN3CCOCC3)c3cc(Cl)ccc23)cc1 [Example 1-O]	91.6	–	–	–
Cc1c(C(=O)c2ccc(C#N)cc2)c2ccccc2n1CCCN1CCOCC1 [Example 1AA]	–	10	–	–
Cc1cccc2c1c(C(=O)c1ccccc1)c(C)n2CCN1CCOCC1 [Example 1AB]	–	–	47	–
Cc1c(C(=O)c2ccc(C#N)cc2)c2ccccc2n1CCN1CCOCC1 [Example 1AF, 2-methyl-3-(4-cyanobenzoyl)-1-[2-(4-morpholinyl)ethyl]-1H-indole]	200	–	–	inhibition in vivo at 3 mg/kg (Mus musculus, iv, 3 mg./kg. i.v., read-out: Ach percent inhibition): 0%; inhibition in vivo at 10 mg/kg [3]: 0%; inhibition in vivo at 30 mg/kg [4]: 30%
Cc1c(C(=O)c2ccc(OCc3ccccc3)cc2)c2ccccc2n1CCN1CCOCC1 [Example 1AG, 2-methyl-3-(4-benzyloxybenzoyl)-1-[2-(4-morpholinyl)ethyl]-1H-indole]	–	40	47	inhibition in vivo at 10 mg/kg [3]: 10%; inhibition in vivo at 30 mg/kg [4]: 56%; inhibition in vivo at 30 mg/kg [5]: 20%
COc1cccc(C(=O)c2c(C)n(CCN3CCOCC3)c3ccccc23)c1 [Example 1AH]	85	–	–	–
COc1ccc(C(=O)c2c(C)n(CCN3CCOCC3)c3ccccc23)cc1OC [Example 1AI]	74	–	–	–
COc1ccc(C(=O)c2c(-c3ccccc3)n(CCN3CCOCC3)c3ccccc23)cc1 [Example 1AJ]	–	13	53	–
COc1ccc2c(c1)c(C(=O)c1ccccc1)cn2CCN1CCOCC1 [Example 1AK]	–	–	40	inhibition in vivo at 550 mg/kg [2]: 47%
COc1ccc2c(c1)c(C(=O)c1ccccc1)c(C)n2CCN1CCOCC1 [Example 1AL]	113	–	–	–
COc1ccc(C(=O)c2c(C)n(CCN3CCOCC3)c3cc(OC)ccc23)cc1 [Example 1AM]	32	–	–	ED50 (Mus musculus, iv): 5 mg/kg
O=C(c1ccc(Cl)cc1)c1cn(CCN2CCOCC2)c2ccccc12 [Example 1AR]	–	–	27	inhibition in vivo at 150 mg/kg [2]: 27%; inhibition in vivo at 25 mg/kg (Mus musculus, sc, 25 mg./kg. s.c., read-out: Ach percent inhibition): 13%
Cc1c(C(=O)c2ccc(Cl)c(Cl)c2)c2ccccc2n1CCN1CCOCC1 [Example 1AS]	–	–	33	–
CC(Cn1cc(C(=O)c2ccccc2)c2ccccc21)N1CCOCC1 (stereo not drawn) [Example 1AZ]	–	73	–	inhibition in vivo at 75 mg/kg (Mus musculus, po, 75 mg./kg. oral, read-out: Ach percent inhibition): 20%; inhibition in vivo at 150 mg/kg [2]: 53%
Cc1cccc2c(C(=O)c3ccccc3)cn(CCN3CCOCC3)c12 [Example 1BA]	197	–	–	–
Cc1c(C(=O)c2cccc3ccccc23)c2ccccc2n1CCN1CCOCC1 [Example 1BB]	97	–	–	–
Cc1c(C(=O)c2ccc(C#N)cc2)c2ccccc2n1CCN1CCCC1 [Example 1BC]	–	40	–	–
CCN(CC)CCn1c(C)c(C(=O)c2ccc(OC)cc2)c2ccccc21 [Example 1BD]	65	–	–	–
CCN(CC)CCn1c(C)c(C(=O)c2ccc(OC)cc2)c2ccccc21 [Example 1BE]	–	–	–	Ach ED50 (oral): 50.9 mg/kg
COc1ccc(C(=O)c2c(C)n(CCN3CCOCC3)c3ccccc23)cc1 [Example 1BF]	–	–	–	inhibition in vivo at 30 mg/kg [6]: 0%
CCCOc1ccc(C(=O)c2c(C)n(CCN3CCOCC3)c3ccccc23)cc1 [Example 1BG]	–	–	33	–
CCOc1ccc(C(=O)c2c(C)n(CCN3CCOCC3)c3ccccc23)cc1 [Example 1BH]	–	27	53	inhibition in vivo at 10 mg/kg [3]: 50%; inhibition in vivo at 30 mg/kg [6]: 0%; inhibition in vivo at 550 mg/kg [2]: 58%; inhibition in vivo at 30 mg/kg [5]: 7%
COc1ccc2cc(C(=O)c3c(C)n(CCN4CCOCC4)c4ccccc34)ccc2c1 [Example 1BJ]	–	0	–	–
Cc1c(C(=O)c2ccc(C#N)cc2)c2cc(F)ccc2n1CCCN1CCOCC1 [Example 1BL]	–	0	–	–
COc1ccc(C(=O)c2cn(CCCN3CCOCC3)c3ccc(F)cc23)cc1 [Example 1BM]	–	0	–	–
